Assay results as given in PMC10882719 (Frontiers in Neuroscience, 2024).
Read-outs that look alike come from different tables or passages of the source.

Legend:
Format in all cases: cell-based
168 GPCRs [1] = target: T1, 168 GPCRs (Homo sapiens, UniProt P07550)
T1 construct: host or cells: PathHunter cell lines

168 GPCRs [2] = target: T2, 168 GPCRs (Homo sapiens, UniProt P22888); details: LHCGR
T2 construct: host or cells: PathHunter cell lines

168 GPCRs [3] = target: T3, 168 GPCRs (Homo sapiens, UniProt P30988)
T3 construct: host or cells: PathHunter cell lines
T3 sequence (P30988 25-474): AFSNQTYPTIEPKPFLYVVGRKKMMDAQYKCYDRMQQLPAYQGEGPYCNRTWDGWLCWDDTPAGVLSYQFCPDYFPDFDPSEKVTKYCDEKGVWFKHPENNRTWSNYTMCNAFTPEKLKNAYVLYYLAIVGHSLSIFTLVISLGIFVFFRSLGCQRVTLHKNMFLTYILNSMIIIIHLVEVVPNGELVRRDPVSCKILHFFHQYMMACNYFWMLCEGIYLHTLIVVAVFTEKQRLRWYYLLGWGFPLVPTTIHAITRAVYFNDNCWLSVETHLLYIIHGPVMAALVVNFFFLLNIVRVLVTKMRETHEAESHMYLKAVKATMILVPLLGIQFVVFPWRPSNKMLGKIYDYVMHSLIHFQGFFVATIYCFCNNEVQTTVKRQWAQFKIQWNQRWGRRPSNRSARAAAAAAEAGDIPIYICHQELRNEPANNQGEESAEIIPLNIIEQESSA

168 GPCRs [4] = target: T4, 168 GPCRs (Homo sapiens, UniProt P51582); details: P2RY4
T4 construct: host or cells: PathHunter cell lines

168 GPCRs [5] = target: T5, 168 GPCRs (Homo sapiens, UniProt P35408); details: PTGER4
T5 construct: host or cells: PathHunter cell lines

168 GPCRs [6] = target: T6, 168 GPCRs (Homo sapiens, UniProt P34981); details: TRHR
T6 construct: host or cells: PathHunter cell lines
T6 sequence (P34981 1-398): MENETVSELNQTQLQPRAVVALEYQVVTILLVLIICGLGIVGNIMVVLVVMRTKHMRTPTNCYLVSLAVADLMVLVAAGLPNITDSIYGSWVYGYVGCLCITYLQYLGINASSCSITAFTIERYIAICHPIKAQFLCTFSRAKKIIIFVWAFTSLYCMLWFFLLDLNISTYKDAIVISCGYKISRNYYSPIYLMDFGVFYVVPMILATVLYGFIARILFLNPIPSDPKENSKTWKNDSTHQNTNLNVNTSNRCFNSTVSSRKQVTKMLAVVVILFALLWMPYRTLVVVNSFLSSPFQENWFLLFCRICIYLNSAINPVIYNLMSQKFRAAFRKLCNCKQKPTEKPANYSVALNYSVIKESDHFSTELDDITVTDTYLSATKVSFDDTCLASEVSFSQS

168 GPCRs [7] = target: T7, 168 GPCRs (Homo sapiens, UniProt P23945); details: FSHR
T7 construct: host or cells: PathHunter cell lines
T7 sequence (P23945 18-695): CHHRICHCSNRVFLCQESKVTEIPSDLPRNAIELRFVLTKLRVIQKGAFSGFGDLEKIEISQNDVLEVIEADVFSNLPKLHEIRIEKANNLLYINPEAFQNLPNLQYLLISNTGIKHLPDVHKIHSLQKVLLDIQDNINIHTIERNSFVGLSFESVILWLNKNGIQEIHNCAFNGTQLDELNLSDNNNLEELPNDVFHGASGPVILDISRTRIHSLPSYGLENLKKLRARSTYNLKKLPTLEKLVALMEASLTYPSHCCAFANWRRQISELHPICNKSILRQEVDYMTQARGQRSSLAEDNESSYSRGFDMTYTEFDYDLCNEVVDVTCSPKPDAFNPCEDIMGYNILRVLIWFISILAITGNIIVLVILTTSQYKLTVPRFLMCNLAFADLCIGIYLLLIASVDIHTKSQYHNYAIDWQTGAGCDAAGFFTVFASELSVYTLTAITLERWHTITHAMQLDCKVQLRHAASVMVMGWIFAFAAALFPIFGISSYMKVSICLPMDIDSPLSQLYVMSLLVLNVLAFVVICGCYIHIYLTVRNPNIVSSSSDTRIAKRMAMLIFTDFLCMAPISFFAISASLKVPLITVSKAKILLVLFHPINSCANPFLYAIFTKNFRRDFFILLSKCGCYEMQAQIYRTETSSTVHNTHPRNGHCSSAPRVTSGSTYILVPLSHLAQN

T2 sequence (P22888 27-699): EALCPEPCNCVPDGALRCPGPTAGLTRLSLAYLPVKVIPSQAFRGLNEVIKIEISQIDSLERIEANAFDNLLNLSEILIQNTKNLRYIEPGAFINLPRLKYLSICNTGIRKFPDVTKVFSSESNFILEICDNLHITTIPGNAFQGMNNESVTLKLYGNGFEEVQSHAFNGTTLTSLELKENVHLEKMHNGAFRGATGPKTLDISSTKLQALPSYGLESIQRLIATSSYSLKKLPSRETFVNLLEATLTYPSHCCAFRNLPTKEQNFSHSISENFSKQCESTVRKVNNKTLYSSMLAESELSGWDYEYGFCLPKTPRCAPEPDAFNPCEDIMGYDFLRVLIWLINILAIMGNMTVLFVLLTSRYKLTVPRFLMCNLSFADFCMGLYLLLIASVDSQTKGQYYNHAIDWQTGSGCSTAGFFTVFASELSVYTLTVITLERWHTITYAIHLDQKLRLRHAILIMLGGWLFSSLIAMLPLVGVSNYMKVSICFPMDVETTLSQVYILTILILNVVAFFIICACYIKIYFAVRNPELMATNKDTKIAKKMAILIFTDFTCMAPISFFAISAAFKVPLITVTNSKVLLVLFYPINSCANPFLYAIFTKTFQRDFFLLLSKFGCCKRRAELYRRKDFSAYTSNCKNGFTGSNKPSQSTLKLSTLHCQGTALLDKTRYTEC
T4 sequence (P51582 whole entry): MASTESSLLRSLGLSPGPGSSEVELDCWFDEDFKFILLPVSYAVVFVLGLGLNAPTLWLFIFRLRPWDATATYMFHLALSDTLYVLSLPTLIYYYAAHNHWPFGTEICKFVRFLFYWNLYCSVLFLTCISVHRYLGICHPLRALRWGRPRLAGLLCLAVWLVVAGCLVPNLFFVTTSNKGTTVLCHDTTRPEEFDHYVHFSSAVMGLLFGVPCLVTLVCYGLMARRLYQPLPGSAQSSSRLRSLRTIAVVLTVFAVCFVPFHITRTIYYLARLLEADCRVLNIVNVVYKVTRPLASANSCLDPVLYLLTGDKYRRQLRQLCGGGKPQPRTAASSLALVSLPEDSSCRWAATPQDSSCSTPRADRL
T1 sequence (P07550 whole entry): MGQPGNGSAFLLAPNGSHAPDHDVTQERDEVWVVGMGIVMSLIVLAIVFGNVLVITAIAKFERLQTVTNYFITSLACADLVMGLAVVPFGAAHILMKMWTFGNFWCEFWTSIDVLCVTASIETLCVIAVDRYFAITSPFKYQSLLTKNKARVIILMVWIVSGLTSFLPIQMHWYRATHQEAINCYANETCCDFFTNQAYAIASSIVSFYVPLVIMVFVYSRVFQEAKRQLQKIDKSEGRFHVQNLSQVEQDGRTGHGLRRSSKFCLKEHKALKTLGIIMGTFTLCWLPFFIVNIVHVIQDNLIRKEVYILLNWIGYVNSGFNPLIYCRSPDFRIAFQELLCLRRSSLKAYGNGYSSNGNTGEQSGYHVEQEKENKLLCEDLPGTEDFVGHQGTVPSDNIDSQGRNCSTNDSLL
T5 sequence (P35408 whole entry): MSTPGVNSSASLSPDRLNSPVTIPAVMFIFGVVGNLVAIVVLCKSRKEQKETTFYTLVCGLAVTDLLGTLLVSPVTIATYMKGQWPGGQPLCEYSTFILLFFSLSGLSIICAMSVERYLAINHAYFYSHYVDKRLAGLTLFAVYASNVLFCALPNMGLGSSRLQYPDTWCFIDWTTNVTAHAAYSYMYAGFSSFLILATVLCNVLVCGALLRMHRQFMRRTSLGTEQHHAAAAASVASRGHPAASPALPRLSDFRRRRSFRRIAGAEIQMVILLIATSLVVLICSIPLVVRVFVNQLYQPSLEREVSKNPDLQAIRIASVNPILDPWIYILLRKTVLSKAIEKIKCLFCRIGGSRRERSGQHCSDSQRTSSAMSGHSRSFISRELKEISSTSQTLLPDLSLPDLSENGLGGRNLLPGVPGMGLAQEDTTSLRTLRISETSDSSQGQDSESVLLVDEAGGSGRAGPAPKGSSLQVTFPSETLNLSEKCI

With `CNC(C)Cc1ccc2c(c1)OCO2` (stereo not drawn) [MDMA, 3,4-Methylenedioxy methamphetamine, reference compound] the “% Agonist Activity” value (168 GPCRs [1]; ADRB2, 1 uM) was 2%, the “% Antagonist Activity” value (168 GPCRs [1]; ADRB2, 1 uM) was 31.9% and the “% Agonist Activity” value (168 GPCRs [1]; ADRB2, 10 uM) was 1.5%. The “% Antagonist Activity” value (168 GPCRs [1]; ADRB2, 10 uM) was 45.7%, the “% Agonist Activity” value (168 GPCRs [2]; 1 uM) was 2.4% and the “% Antagonist Activity” value (168 GPCRs [2]; 1 uM) was 1.2%. The “% Agonist Activity” value (168 GPCRs [2]; 10 uM) was 0.9%, the “% Antagonist Activity” value (168 GPCRs [2]; 10 uM) was -1% and the “% Agonist Activity” value (168 GPCRs [3]; CALCR, 1 uM) was -3.5%. The “% Antagonist Activity” value (168 GPCRs [3]; CALCR, 1 uM) was -8.1%, the “% Agonist Activity” value (168 GPCRs [3]; CALCR, 10 uM) was -2.4% and the “% Antagonist Activity” value (168 GPCRs [3]; CALCR, 10 uM) was 6.8%. For the same molecule, the “% Agonist Activity” value (168 GPCRs [3]; CALCR-RAMP2, 1 uM) was -0.3%, the “% Antagonist Activity” value (168 GPCRs [3]; CALCR-RAMP2, 1 uM) was 12.8% and the “% Agonist Activity” value (168 GPCRs [3]; CALCR-RAMP2, 10 uM) was 2.9%. For the same molecule, the “% Antagonist Activity” value (168 GPCRs [3]; CALCR-RAMP2, 10 uM) was 15.7%, the “% Agonist Activity” value (168 GPCRs [3]; CALCR-RAMP3, 1 uM) was -18.3% and the “% Antagonist Activity” value (168 GPCRs [3]; CALCR-RAMP3, 1 uM) was -3.6%. The “% Agonist Activity” value (168 GPCRs [3]; CALCR-RAMP3, 10 uM) was -1.4%, the “% Antagonist Activity” value (168 GPCRs [3]; CALCR-RAMP3, 10 uM) was -1.3% and the “% Agonist Activity” value (168 GPCRs [4]; Conc 1 uM) was -4.2%. The “% Antagonist Activity” value (168 GPCRs [4]; Conc 1 uM) was 5.7%, the “% Agonist Activity” value (168 GPCRs [4]; Conc 10 uM) was -7.2% and the “% Antagonist Activity” value (168 GPCRs [4]; Conc 10 uM) was -0.6%. The “% Agonist Activity” value (168 GPCRs [5]; Conc 1 uM) was 11.1%, the “% Antagonist Activity” value (168 GPCRs [5]; Conc 1 uM) was 7.2% and the “% Agonist Activity” value (168 GPCRs [5]; Conc 10 uM) was 7.8%. The “% Antagonist Activity” value (168 GPCRs [5]; Conc 10 uM) was 11.7%, the “% Agonist Activity” value (168 GPCRs [6]; Conc 1 uM) was -0.4% and the “% Antagonist Activity” value (168 GPCRs [6]; Conc 1 uM) was 16.2%. For the same molecule, the “% Agonist Activity” value (168 GPCRs [6]; Conc 10 uM) was -0.1%, the “% Antagonist Activity” value (168 GPCRs [6]; Conc 10 uM) was 9.9% and the “% Agonist Activity” value (168 GPCRs [7]; 1 uM) was 0.7%. For the same molecule, the “% Antagonist Activity” value (168 GPCRs [7]; 1 uM) was 3.2%, the “% Agonist Activity” value (168 GPCRs [7]; 10 uM) was -0.1% and the “% Antagonist Activity” value (168 GPCRs [7]; 10 uM) was -5.8%.

For `CNC(C)C(=O)c1ccc2c(c1)OCO2` (stereo not drawn) [methylone], the “% Agonist Activity” value (168 GPCRs [1]; ADRB2, 1 uM) was 0%, the “% Antagonist Activity” value (168 GPCRs [1]; ADRB2, 1 uM) was 18.1% and the “% Agonist Activity” value (168 GPCRs [1]; ADRB2, 10 uM) was -0.2%. For the same molecule, the “% Antagonist Activity” value (168 GPCRs [1]; ADRB2, 10 uM) was 20.4%, the “% Agonist Activity” value (168 GPCRs [2]; 1 uM) was 0.4% and the “% Antagonist Activity” value (168 GPCRs [2]; 1 uM) was 13.8%. For the same molecule, the “% Agonist Activity” value (168 GPCRs [2]; 10 uM) was 0.4%, the “% Antagonist Activity” value (168 GPCRs [2]; 10 uM) was 11.2% and the “% Agonist Activity” value (168 GPCRs [3]; CALCR, 1 uM) was -0.3%. The “% Antagonist Activity” value (168 GPCRs [3]; CALCR, 1 uM) was 5.4%, the “% Agonist Activity” value (168 GPCRs [3]; CALCR, 10 uM) was -0.2% and the “% Antagonist Activity” value (168 GPCRs [3]; CALCR, 10 uM) was -4.4%. The “% Agonist Activity” value (168 GPCRs [3]; CALCR-RAMP2, 1 uM) was 0.9%, the “% Antagonist Activity” value (168 GPCRs [3]; CALCR-RAMP2, 1 uM) was -10.6% and the “% Agonist Activity” value (168 GPCRs [3]; CALCR-RAMP2, 10 uM) was 1.6%. The “% Antagonist Activity” value (168 GPCRs [3]; CALCR-RAMP2, 10 uM) was -19.6%, the “% Agonist Activity” value (168 GPCRs [3]; CALCR-RAMP3, 1 uM) was 7.9% and the “% Antagonist Activity” value (168 GPCRs [3]; CALCR-RAMP3, 1 uM) was -8.9%. The “% Agonist Activity” value (168 GPCRs [3]; CALCR-RAMP3, 10 uM) was 7.1%, the “% Antagonist Activity” value (168 GPCRs [3]; CALCR-RAMP3, 10 uM) was -3.3% and the “% Agonist Activity” value (168 GPCRs [4]; Conc 1 uM) was -3.3%. For the same molecule, the “% Antagonist Activity” value (168 GPCRs [4]; Conc 1 uM) was 15.1%, the “% Agonist Activity” value (168 GPCRs [4]; Conc 10 uM) was -4.1% and the “% Antagonist Activity” value (168 GPCRs [4]; Conc 10 uM) was 17.5%. The “% Agonist Activity” value (168 GPCRs [5]; Conc 1 uM) was -2.8%, the “% Antagonist Activity” value (168 GPCRs [5]; Conc 1 uM) was 10.1% and the “% Agonist Activity” value (168 GPCRs [5]; Conc 10 uM) was -1.4%. For the same molecule, the “% Antagonist Activity” value (168 GPCRs [5]; Conc 10 uM) was 4.3%, the “% Agonist Activity” value (168 GPCRs [6]; Conc 1 uM) was -2% and the “% Antagonist Activity” value (168 GPCRs [6]; Conc 1 uM) was -7.2%. The “% Agonist Activity” value (168 GPCRs [6]; Conc 10 uM) was -2.2%, the “% Antagonist Activity” value (168 GPCRs [6]; Conc 10 uM) was 2.8% and the “% Agonist Activity” value (168 GPCRs [7]; 1 uM) was -1%. For the same molecule, the “% Antagonist Activity” value (168 GPCRs [7]; 1 uM) was -11.8%, the “% Agonist Activity” value (168 GPCRs [7]; 10 uM) was -2.2% and the “% Antagonist Activity” value (168 GPCRs [7]; 10 uM) was -8.4%.
